In publication PMC6389962 (Nature Communications, 2019):
Like-named read-outs stand apart in the source and are kept apart here. Starred links: 1 amine or outer side, 2 acyl side, 3 side chain; linkers in the order of their positions; H or OH if unused. Positions of bridges follow the written chain, without caps; N, C: chain ends. Residues, ends and D or L forms follow the SMILES beside them. Chains are numbered I, II in the order given. X1 = C[C@@H](CNC(=O)N[C@@H](C)CNC(=O)[*:2])NC(=O)NC[C@H](C)N[*:1]; X5 = C[C@@H](CNC(=O)N[C@@H](C)CNC(=O)[*:1])NC(=O)NC[C@H](C)N[*:2]

What was measured:
mouse GLP-1 receptor [1] = target: T1, mouse GLP-1 receptor (Mus musculus, UniProt O35659); details: for Potency (%), percentage of potency compare to GLP-1-G^2: cAMP production, from EC50
T1 sequence (O35659 22-463): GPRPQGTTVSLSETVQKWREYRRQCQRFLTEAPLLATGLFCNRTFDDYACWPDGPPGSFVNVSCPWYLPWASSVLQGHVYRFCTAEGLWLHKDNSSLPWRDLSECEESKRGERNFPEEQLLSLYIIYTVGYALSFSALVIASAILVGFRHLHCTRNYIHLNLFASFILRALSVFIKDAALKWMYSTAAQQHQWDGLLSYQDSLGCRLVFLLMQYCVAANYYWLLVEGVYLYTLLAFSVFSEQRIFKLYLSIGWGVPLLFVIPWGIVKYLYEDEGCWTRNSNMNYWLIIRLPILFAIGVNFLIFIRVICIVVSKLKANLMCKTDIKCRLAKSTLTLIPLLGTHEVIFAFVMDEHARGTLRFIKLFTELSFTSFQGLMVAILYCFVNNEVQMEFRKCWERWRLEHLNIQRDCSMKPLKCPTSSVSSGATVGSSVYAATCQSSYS

mouse GLP-1 receptor [2] = target: T1, mouse GLP-1 receptor; test: cell-based; details: for Emax: 14: experiment 1
[3] = read-out: Top (best-fit value), variable slope four-parameter fit, unconstrained
[4] = read-out: Top (best-fit value), fit with BOTTOM = 0%

| SMILES | LogEC50 (best-fit value) (mouse GLP-1 receptor [1]) | EC50 (mouse GLP-1 receptor [2]) [µM] | Emax (mouse GLP-1 receptor [2]; [3]) [%] | Potency (%), percentage of potency compare to GLP-1-G^2 (mouse GLP-1 receptor [1]) [%] | Emax (mouse GLP-1 receptor [2]; [4]) [%] |
| --- | --- | --- | --- | --- | --- |
| CC[C@H](C)[C@H](NC(=O)[C@H](Cc1ccccc1)NC(=O)[C@H](CCC(=O)O)NC(=O)[C@H](CCCCN)NC(=O)[C@H](C)NC(=O)[C@H](C)NC(=O)[C@H](CCC(N)=O)NC(=O)CNC(=O)[C@H](CCC(=O)O)NC(=O)[C@H](CC(C)C)NC(=O)[C@H](Cc1ccc(O)cc1)NC(=O)[C@H](CO)NC(=O)[C@H](CO)NC(=O)[C@@H](NC(=O)[C@H](CC(=O)O)NC(=O)[C@H](CO)NC(=O)[C@@H](NC(=O)[C@H](Cc1ccccc1)NC(=O)[C@@H](NC(=O)CNC(=O)[C@H](CCC(=O)O)NC(=O)CNC(=O)[C@@H](N)Cc1c[nH]cn1)[C@@H](C)O)[C@@H](C)O)C(C)C)C(=O)N[C@@H](C)CNC(=O)N[C@@H](C)CNC(=O)N[C@@H](C)CNC(=O)N[C@@H](CCCCN)C(=O)NCC(=O)N[C@@H](CCCNC(=N)N)C(=O)NCC(N)=O [compound 18, GG2[A^uA^uA^u]^24-27] |  | > 10 | 198 | < 0.01 |  |
| CC[C@H](C)[C@H](NC(=O)[C@H](Cc1ccccc1)NC(=O)[C@H](CCC(=O)O)NC(=O)[C@H](CCCCN)NC(=O)[C@H](C)NC(=O)[C@H](C)NC(=O)[C@H](CCC(N)=O)NC(=O)CNC(=O)[C@H](CCC(=O)O)NC(=O)[C@H](CC(C)C)NC(=O)NC[C@H](C)NC(=O)NC[C@H](C)NC(=O)NC[C@H](C)NC(=O)[C@H](CC(=O)O)NC(=O)[C@H](CO)NC(=O)[C@@H](NC(=O)[C@H](Cc1ccccc1)NC(=O)[C@@H](NC(=O)CNC(=O)[C@H](CCC(=O)O)NC(=O)CNC(=O)[C@@H](N)Cc1c[nH]cn1)[C@@H](C)O)[C@@H](C)O)C(=O)N[C@@H](C)C(=O)N[C@@H](Cc1c[nH]c2ccccc12)C(=O)N[C@@H](CC(C)C)C(=O)N[C@H](C(=O)N[C@@H](CCCCN)C(=O)NCC(=O)N[C@@H](CCCNC(=N)N)C(=O)NCC(N)=O)C(C)C [compound 3, GG2[A^uA^uA^u]^10-13] | -6.187 | 0.65 | 91.6 | 0.04 |  |
| CC[C@H](C)[C@H](NC(=O)NC[C@H](C)NC(=O)NC[C@H](C)NC(=O)NC[C@H](C)NC(=O)[C@H](C)NC(=O)[C@H](CCC(N)=O)NC(=O)CNC(=O)[C@H](CCC(=O)O)NC(=O)[C@H](CC(C)C)NC(=O)[C@H](Cc1ccc(O)cc1)NC(=O)[C@H](CO)NC(=O)[C@H](CO)NC(=O)[C@@H](NC(=O)[C@H](CC(=O)O)NC(=O)[C@H](CO)NC(=O)[C@@H](NC(=O)[C@H](Cc1ccccc1)NC(=O)[C@@H](NC(=O)CNC(=O)[C@H](CCC(=O)O)NC(=O)CNC(=O)[C@@H](N)Cc1c[nH]cn1)[C@@H](C)O)[C@@H](C)O)C(C)C)C(=O)N[C@@H](C)C(=O)N[C@@H](Cc1c[nH]c2ccccc12)C(=O)N[C@@H](CC(C)C)C(=O)N[C@H](C(=O)N[C@@H](CCCCN)C(=O)NCC(=O)N[C@@H](CCCNC(=N)N)C(=O)NCC(N)=O)C(C)C [compound 15, GG2[A^uA^uA^u]^19-22] (I: H-HGEGTFTSDVSSYLEGQA / II: IAWLVKGRG-NH2; linker I:C-II:N via X1) |  | > 10 | 92.7 |  | ~538 |
| CC[C@H](C)[C@H](NC(=O)[C@H](Cc1ccccc1)NC(=O)[C@H](CCC(=O)O)NC(=O)[C@H](CCCCN)NC(=O)[C@H](C)NC(=O)[C@H](C)NC(=O)NC[C@H](C)NC(=O)NC[C@H](C)NC(=O)NC[C@H](C)NC(=O)[C@H](Cc1ccc(O)cc1)NC(=O)[C@H](CO)NC(=O)[C@H](CO)NC(=O)[C@@H](NC(=O)[C@H](CC(=O)O)NC(=O)[C@H](CO)NC(=O)[C@@H](NC(=O)[C@H](Cc1ccccc1)NC(=O)[C@@H](NC(=O)CNC(=O)[C@H](CCC(=O)O)NC(=O)CNC(=O)[C@@H](N)Cc1c[nH]cn1)[C@@H](C)O)[C@@H](C)O)C(C)C)C(=O)N[C@@H](C)C(=O)N[C@@H](Cc1c[nH]c2ccccc12)C(=O)N[C@@H](CC(C)C)C(=O)N[C@H](C(=O)N[C@@H](CCCCN)C(=O)NCC(=O)N[C@@H](CCCNC(=N)N)C(=O)NCC(N)=O)C(C)C [compound 8, GG2[A^uA^uA^u]^14-17] (I: AAKEFIAWLVKGRG-NH2 / II: H-HGEGTFTSDVSSY; linker I:N-II:C via X5) | -6.452 | 0.353 | 73.4 | 0.07 |  |

Next, values leading:

| LogEC50 (best-fit value) (mouse GLP-1 receptor [1]) | EC50 (mouse GLP-1 receptor [2]) [µM] | Emax (mouse GLP-1 receptor [2]; [3]) [%] | Potency (%), percentage of potency compare to GLP-1-G^2 (mouse GLP-1 receptor [1]) [%] | Emax (mouse GLP-1 receptor [2]; [4]) [%] | SMILES |
| --- | --- | --- | --- | --- | --- |
| -5.795 | 1.6 | 57.7 |  |  | CC[C@H](C)[C@H](NC(=O)[C@H](Cc1ccccc1)NC(=O)[C@H](CCC(=O)O)NC(=O)NC[C@H](C)NC(=O)NC[C@H](C)NC(=O)NC[C@H](C)NC(=O)CNC(=O)[C@H](CCC(=O)O)NC(=O)[C@H](CC(C)C)NC(=O)[C@H](Cc1ccc(O)cc1)NC(=O)[C@H](CO)NC(=O)[C@H](CO)NC(=O)[C@@H](NC(=O)[C@H](CC(=O)O)NC(=O)[C@H](CO)NC(=O)[C@@H](NC(=O)[C@H](Cc1ccccc1)NC(=O)[C@@H](NC(=O)CNC(=O)[C@H](CCC(=O)O)NC(=O)CNC(=O)[C@@H](N)Cc1c[nH]cn1)[C@@H](C)O)[C@@H](C)O)C(C)C)C(=O)N[C@@H](C)C(=O)N[C@@H](Cc1c[nH]c2ccccc12)C(=O)N[C@@H](CC(C)C)C(=O)N[C@H](C(=O)N[C@@H](CCCCN)C(=O)NCC(=O)N[C@@H](CCCNC(=N)N)C(=O)NCC(N)=O)C(C)C [compound 13, GG2[A^uA^uA^u]^17-20] |
|  | > 10 | 6.19 | < 0.01 | 6.08 | CC[C@H](C)[C@H](NC(=O)[C@H](Cc1ccccc1)NC(=O)[C@H](CCC(=O)O)NC(=O)[C@H](CCCCN)NC(=O)[C@H](C)NC(=O)[C@H](C)NC(=O)[C@H](CCC(N)=O)NC(=O)CNC(=O)NC[C@H](C)NC(=O)NC[C@H](C)NC(=O)NC[C@H](C)NC(=O)[C@H](CO)NC(=O)[C@@H](NC(=O)[C@H](CC(=O)O)NC(=O)[C@H](CO)NC(=O)[C@@H](NC(=O)[C@H](Cc1ccccc1)NC(=O)[C@@H](NC(=O)CNC(=O)[C@H](CCC(=O)O)NC(=O)CNC(=O)[C@@H](N)Cc1c[nH]cn1)[C@@H](C)O)[C@@H](C)O)C(C)C)C(=O)N[C@@H](C)C(=O)N[C@@H](Cc1c[nH]c2ccccc12)C(=O)N[C@@H](CC(C)C)C(=O)N[C@H](C(=O)N[C@@H](CCCCN)C(=O)NCC(=O)N[C@@H](CCCNC(=N)N)C(=O)NCC(N)=O)C(C)C [compound 6, GG2[A^uA^uA^u]^12-15] |
|  | > 10 | ~208 |  |  | CC[C@H](C)[C@H](NC(=O)[C@H](Cc1ccccc1)NC(=O)[C@H](CCC(=O)O)NC(=O)[C@H](CCCCN)NC(=O)[C@H](C)NC(=O)[C@H](C)NC(=O)[C@H](CCC(N)=O)NC(=O)NC[C@H](C)NC(=O)NC[C@H](C)NC(=O)NC[C@H](C)NC(=O)[C@H](CO)NC(=O)[C@H](CO)NC(=O)[C@@H](NC(=O)[C@H](CC(=O)O)NC(=O)[C@H](CO)NC(=O)[C@@H](NC(=O)[C@H](Cc1ccccc1)NC(=O)[C@@H](NC(=O)CNC(=O)[C@H](CCC(=O)O)NC(=O)CNC(=O)[C@@H](N)Cc1c[nH]cn1)[C@@H](C)O)[C@@H](C)O)C(C)C)C(=O)N[C@@H](C)C(=O)N[C@@H](Cc1c[nH]c2ccccc12)C(=O)N[C@@H](CC(C)C)C(=O)N[C@H](C(=O)N[C@@H](CCCCN)C(=O)NCC(=O)N[C@@H](CCCNC(=N)N)C(=O)NCC(N)=O)C(C)C [compound 7, GG2[A^uA^uA^u]^13-16] (I: QAAKEFIAWLVKGRG-NH2 / II: H-HGEGTFTSDVSS; linker I:N-II:C via X5) |
